Laboratory results reported in patent US10071975B2, “Macrocyclic amidinourea derivatives, methods of preparation and uses thereof as chitinase inhibitors” (CYGNET BIOSCIENCES B.V., priority 2013, dated 2018).
In brackets after ≈: the same amount, converted by molar mass. Like-named read-outs stand apart in the source and are kept apart here.

Legend:
C. kefyr = experiment: Antimicrobial susceptibility testing (microdilution MIC90), C. kefyr strains; format: cell-based, Candida kefyr; details: Kluyveromyces marxianus; C. kefyr (10 strains tested); 24 h
Method: (§1) Sterile plastic microtitration plates containing flat-bottomed wells were used. The plates contained serial dilution of the antifungal agents with a volume of assay medium of 100 μL/well. Two drug-free medium wells were used as sterility and growth controls. The trays were inoculated with 100 μL/well of the final inoculum, with the exception of sterility control wells. […] The microtitration plates were incubated at 37° C. for 24 h. The minimal inhibitory concentrations (MICs) were determined at 24 h both visually and spectrophotometrically measuring the turbidity at 595 nm with a Varian model 1475 spectrophotometer. Results of biological tests are shown in Table 2, biological data are reported as MIC90 that is the minimum concentration required to inhibit the growth of at least the 90% of the strains tested for each species.

[1] = test system: C. glabrata fluconazole resistant strains; experiment: microbe, parasite or virus in culture; format: cell-based, Candida glabrata; details: Nakaseomyces glabratus, 24 h
[2] = test system: chitinase enzyme extracted from Trichoderma viride; experiment: Chitinase inhibition assay (NP-GlcNAc substrate); format: biochemical
Method: Chitinase inhibition assays were conducted against an example of the GH18 family of chitinases, i.e the chitinase enzyme extracted from Trichoderma viride. This enzyme has an high degree of identity compared to chitinase 4 of Candida albicans, and is commercially available from Sigma-Aldrich (catalogue ID: C8241).
The substrate used was the NP-GlcNAc (Sigma-Aldrich, catalogue ID: N9376) dissolved in MES 50 mM at pH6.0; the final concentration was 250 μM. The enzyme was resuspended at 0.11 mg/ml in MES 50 mM at pH 6.0, with a final concentration for the assay of 73 nM diluting with MES 50 mM and BSA 20 μg/ml at pH 6.0. A stock solution of the inhibitors was prepared at 50 mM in DMSO 100%.
The mixture with the inhibitor at various concentrations and the enzyme was prepared directly into the reading plate and left to incubate at room temperature for 20 minutes or three hours. At the end of the incubation times, the substrate was added and the reading was conducted by recording the values up to a maximum time of 10 minutes. The substrate concentration was measured by reading UV absorption at 300 nm (εM^300: 11100), while, the product of hydrolysis were measured at 400 nm (ΔεM^400: 2120). Both IC50 and Ki can be calculated.

[3] = test system: C. albicans fluconazole resistant strains; experiment: microbe, parasite or virus in culture; format: cell-based; details: Candida albicans, 24 h
C. parapsilosis = experiment: Antimicrobial susceptibility testing (microdilution MIC90), C. parapsilosis strains; format: cell-based, Candida parapsilosis; details: Lodderomyces parapsilosis; C. parapsilosis (24 strains tested); 24 h
Method: as §1

C. albicans = experiment: Antimicrobial susceptibility testing (microdilution MIC90), C. albicans strains; format: cell-based; details: Candida albicans; C. albicans (22 strains tested); 24 h, visually and spectrophotometrically
Method: as §1

C. guilliermondii = experiment: Antimicrobial susceptibility testing (microdilution MIC90), C. guilliermondii strains; format: cell-based, Candida guilliermondii; details: Meyerozyma guilliermondii; C. guilliermondii (10 strains tested); 24 h
Method: as §1

C. tropicalis = experiment: Antimicrobial susceptibility testing (microdilution MIC90), C. tropicalis strains; format: cell-based; details: Candida tropicalis; C. tropicalis (11 strains tested); 24 h
Method: as §1

C. krusei = experiment: Antimicrobial susceptibility testing (microdilution MIC90), C. krusei strains; format: cell-based, Candida krusei; details: Pichia kudriavzevii, 24 h
Method: as §1

C. glabrata = experiment: Antimicrobial susceptibility testing (microdilution MIC90), C. glabrata strains; format: cell-based, Candida glabrata; details: Nakaseomyces glabratus; C. glabrata (26 strains tested); 24 h
Method: as §1

[4] = Enz.-inhib. incubation time 20 min
[5] = Enz.-inhib. incubation time 3 h
[6] = strain DSY284, ERG11 Mutation, mean of three measurements
[7] = strain DSY289, ERG11 Mutation (2)
[8] = strain DSY291, ERG11 Mutation (2)
[9] = strain DSY292, ERG11 Mutation (3)
[10] = strain DSY751, ↑MDR1, ERG11 Mutation
[11] = C. krusei (13 strains tested), read-out: MIC90

Row | SMILES | MIC90 (C. kefyr) | MIC ([1]; strain DSY530, ↑CDR1) | MIC ([1]; strain DSY754, ↑CDR1) | MIC ([1]; strain DSY756, ↑CDR1-CDR2-SNQ2) | MIC ([1]; strain DSY2254, ↑CDR1-CDR2) | MIC ([1]; strain DSY2271, ↑CDR2) | MIC [3, 6] | MIC [3, 7] | MIC [3, 8] | MIC [3, 9] | MIC ([3]; strain DSY296, ERG11 Mutation) | MIC ([3]; strain DSY348, ERG11 Mutation) | MIC ([3]; strain DSY732, ↑CDR1-CDR2) | MIC ([3]; strain DSY735, ↑CDR1-CDR2) | MIC ([3]; strain DSY750, ↑MDR1) | MIC [3, 10] | MIC ([3]; strain DSY775, ERG11 Mutation) | MIC ([3]; strain DSY2323, ↑CDR2-MDR1) | MIC90 (C. parapsilosis) | MIC90 (C. albicans) | further results
1 | C/C=C/CNC(=N)NCCCCCCCCN1CCCCCOc2ccccc2CNC(=N)NC1=O [Example 17, 1-[(E)-but-2-enyl]-3-[8-(4-imino-6-oxo-13-oxa-3,5,7-triazabicyclo[12.4.0]octadeca-1(14),15,17-trien-7-yl)octyl]guanidine] | 4 µg/mL (≈ 8 µM) | 8 µg/mL (≈ 16 µM) | 16 µg/mL (≈ 32 µM) | 8 µg/mL (≈ 16 µM) | 16 µg/mL (≈ 32 µM) | 8 µg/mL (≈ 16 µM) | 2 µg/mL (≈ 4 µM) | 2 µg/mL (≈ 4 µM) | 4 µg/mL (≈ 8 µM) | 4 µg/mL (≈ 8 µM) | 4 µg/mL (≈ 8 µM) | 2 µg/mL (≈ 4 µM) | 2 µg/mL (≈ 4 µM) | 2 µg/mL (≈ 4 µM) | 4 µg/mL (≈ 8 µM) | 4 µg/mL (≈ 8 µM) | 4 µg/mL (≈ 8 µM) | 4 µg/mL (≈ 8 µM) | 2 µg/mL (≈ 4 µM) | 4 µg/mL (≈ 8 µM) | inhibition of the chitinase enzyme [2]: active inhibitor; IC50 [2, 4]: 151 µM; Ki [2, 4]: 48.8 µM; IC50 [2, 5]: 55 µM; Ki [2, 5]: 17.8 µM; MIC90 (C. guilliermondii): 2 µg/mL (≈ 4 µM); MIC90 (C. tropicalis): 2 µg/mL (≈ 4 µM); MIC90 (C. krusei; [11]): 8 µg/mL (≈ 16 µM); MIC90 (C. glabrata): 8 µg/mL (≈ 16 µM)
2 | C/C=C/CNC(=N)NCCCCCCCCN1CCCCCCOc2ccccc2CNC(=N)NC1=O [Example 18, 1-[(E)-but-2-enyl]-3-[8-(4-imino-6-oxo-14-oxa-3,5,7-triazabicyclo[13.4.0]nonadeca-1(15), 16,18-trien-7-yl)octyl]guanidine] | 2 µg/mL (≈ 3.89 µM) | 32 µg/mL (≈ 62.3 µM) | 32 µg/mL (≈ 62.3 µM) | 64 µg/mL (≈ 125 µM) | 64 µg/mL (≈ 125 µM) | 32 µg/mL (≈ 62.3 µM) | 8 µg/mL (≈ 15.6 µM) | 8 µg/mL (≈ 15.6 µM) | 16 µg/mL (≈ 31.1 µM) | 16 µg/mL (≈ 31.1 µM) | 16 µg/mL (≈ 31.1 µM) | 8 µg/mL (≈ 15.6 µM) | 16 µg/mL (≈ 31.1 µM) | 16 µg/mL (≈ 31.1 µM) | 16 µg/mL (≈ 31.1 µM) | 16 µg/mL (≈ 31.1 µM) | 16 µg/mL (≈ 31.1 µM) | 16 µg/mL (≈ 31.1 µM) | 2 µg/mL (≈ 3.89 µM) | 4 µg/mL (≈ 7.79 µM) | MIC90 (C. guilliermondii): 2 µg/mL (≈ 3.89 µM); MIC90 (C. tropicalis): 1 µg/mL (≈ 1.95 µM); MIC90 (C. krusei; [11]): 4 µg/mL (≈ 7.79 µM); MIC90 (C. glabrata): 16 µg/mL (≈ 31.1 µM)
3 | C/C=C/CNC(=N)NCCCCCCCCN1CCCCCOC(=O)CCNC(=N)NC1=O [Example 19, 1-[(E)-but-2-enyl]-3-[8-(6-imino-2,8-dioxo-1-oxa-5,7,9-triazacyclotetradec-9-yl)octyl]guanidine] | 32 µg/mL (≈ 68.7 µM) | 64 µg/mL (≈ 137 µM) | 64 µg/mL (≈ 137 µM) | 128 µg/mL (≈ 275 µM) | 128 µg/mL (≈ 275 µM) | 64 µg/mL (≈ 137 µM) | 16 µg/mL (≈ 34.4 µM) | 8 µg/mL (≈ 17.2 µM) | 8 µg/mL (≈ 17.2 µM) | 16 µg/mL (≈ 34.4 µM) | 16 µg/mL (≈ 34.4 µM) | 8 µg/mL (≈ 17.2 µM) | 8 µg/mL (≈ 17.2 µM) | 8 µg/mL (≈ 17.2 µM) | 16 µg/mL (≈ 34.4 µM) | 16 µg/mL (≈ 34.4 µM) | 16 µg/mL (≈ 34.4 µM) | 16 µg/mL (≈ 34.4 µM) | 32 µg/mL (≈ 68.7 µM) | 32 µg/mL (≈ 68.7 µM) | MIC90 (C. guilliermondii): 32 µg/mL (≈ 68.7 µM); MIC90 (C. tropicalis): 32 µg/mL (≈ 68.7 µM); MIC90 (C. krusei; [11]): 64 µg/mL (≈ 137 µM); MIC90 (C. glabrata): 64 µg/mL (≈ 137 µM)
4 | OC(Cn1cncn1)(Cn1cncn1)c1ccc(F)cc1F [F, Fluconazole, reference compound] | 1 µg/mL (≈ 3.27 µM) | 64 µg/mL (≈ 209 µM) | 64 µg/mL (≈ 209 µM) | 128 µg/mL (≈ 418 µM) | 128 µg/mL (≈ 418 µM) | 64 µg/mL (≈ 209 µM) | 256 µg/mL (≈ 836 µM) | 256 µg/mL (≈ 836 µM) | 2 µg/mL (≈ 6.53 µM) | 64 µg/mL (≈ 209 µM) | 128 µg/mL (≈ 418 µM) | 32 µg/mL (≈ 104 µM) | 16 µg/mL (≈ 52.2 µM) | 64 µg/mL (≈ 209 µM) | 2 µg/mL (≈ 6.53 µM) | 256 µg/mL (≈ 836 µM) | 128 µg/mL (≈ 418 µM) | 32 µg/mL (≈ 104 µM) | 0.5 µg/mL (≈ 1.63 µM) | 2 µg/mL (≈ 6.53 µM) | MIC90 (C. guilliermondii): 4 µg/mL (≈ 13.1 µM); MIC90 (C. tropicalis): 2 µg/mL (≈ 6.53 µM); MIC90 (C. krusei): 256 µg/mL (≈ 836 µM); MIC90 (C. glabrata): 16 µg/mL (≈ 52.2 µM)
